Literature values as cited in publication PMC8542980, “The Scavenger Function of Liver Sinusoidal Endothelial Cells in Health and Disease” (Frontiers in Physiology, 2021).
Where two headings read alike, the source gives them in different places.

Tests used:
[1] = system: LSECs
[2] = system: endocytic hyaluronan receptor
[3] = set-up: method as in Fraser et al., 1981; details: rabbit, ref Fraser et al., 1981
[4] = set-up: method as in Fraser et al., 1984; details: human, ref Fraser et al., 1984
[5] = rat, 1 μg, tail vein, ref Smedsrød and Einarsson, 1990
[6] = ref Smedsrød et al., 1984, Laurent et al., 1986b
[7] = rats, whole body autoradiography 10 min after injection, ref Fraser et al., 1985

C[C@@H]1C[C@@H]([C@H](O)CC2CC(=O)NC(=O)C2)C(=O)[C@@H](C)C1 [cycloheximide]
effect on the endocytosis of hyaluronan by cultured LSECs ([1]; inhibitor of protein synthesis, ref McGary et al., 1989): no effect

Dextran sulfate
inhibition of the binding of hyaluronan by LSECs ([2]; ref Raja et al., 1988, McGary et al., 1989): can also inhibit

^125I-tPA: 125I-labeled tissue plasminogen activator
% eliminated with t1/2α [5]: 65%
% eliminated with t1/2β [5]: 35%
Decay of plasma/blood radioactivity, t1/2α [5]: 0.6 min
Decay of plasma/blood radioactivity, t1/2β [5]: 6.4 min

chondroitin sulfate
inhibition of the uptake and binding of hyaluronan by LSECs ([2]; ref Smedsrød et al., 1984): can inhibit
affinity of the rat receptor compared with hyaluronan of the same chain length [2, 6]: threefold greater affinity

chondroitin sulfate [[^3H]-chondroitin sulfate (CS)]
site of main uptake (rat, clearance rate not examined, ref Smedsrød et al., 1985b): Clearance rate not examined but the main uptake was in LSECs

heparan sulfate
affinity of the rat receptor [2, 6]: no affinity

heparin [listing 1 of 2 here]
Decay of plasma/blood radioactivity, t1/2 (rat, 0.1 IU/kg, tail vein, ref Øie et al., 2008): 1.71 min
recovered in liver (rat, after 15 min, ref Øie et al., 2008): 71%

heparin [listing 2 of 2 here]
affinity of the rat receptor [2, 6]: no affinity

hyaluronan
uptake in liver (rat, at 30 min after injection, ref Dahl et al., 1988): 79%
Decay of plasma/blood radioactivity, t1/2α (rat, tail vein, MW = 2.5 × 10^5, ref Dahl et al., 1988): 0.9 min

hyaluronan [[^3H]-hyaluronan]
injected radioactivity found in Kupffer cells [7]: none
injected radioactivity found in the cytoplasm of LSECs [7]: approximately 90%
time to appearance of degradation products in the supernatant ([1]; LSEC cultures, 37°C, after addition of ligand, ref Smedsrød et al. (1984)): ≤ 30 min
time to steady state levels of internalized ligand and degradation products ([1]; LSEC cultures, 37°C, into the incubation, ref Smedsrød et al. (1984)): 60 to 75 min
Decay of plasma/blood radioactivity, t1/2 ([3]; 30–32 μg, marginal ear vein): 2.5 to 4.5 min
uptake in liver ([3]; at 19 min after injection): 88%
Decay of plasma/blood radioactivity, t1/2 ([4]; 60–130 μg, cubital vein): 2.6 to 5.5 min
eliminated from blood ([4]; after 10 min): 90%

hyaluronan [hyaluronan of 6.4 × 10^6 Da]
Kd ([2]; endocytic hyaluronan receptor of LSECs, ref Laurent et al., 1986b, read-out: dissociation constant): 9 pM

B1: ^125I-TC-nidogen: nidogen labeled with 125I-tyramine cellobiose (protein, UniProt P14543 29-1247, looked up)
Nidogen-1: LSRQELFPFGPGQGDLELEDGDDFVSPALELSGALRFYDRSDIDAVYVTTNGIIATSEPPAKESHPGLFPPTFGAVAPFLADLDTTDGLGKVYYREDLSPSITQRAAECVHRGFPEISFQPSSAVVVTWESVAPYQGPSRDPDQKGKRNTFQAVLASSDSSSYAIFLYPEDGLQFHTTFSKKENNQVPAVVAFSQGSVGFLWKSNGAYNIFANDRESVENLAKSSNSGQQGVWVFEIGSPATTNGVVPADVILGTEDGAEYDDEDEDYDLATTRLGLEDVGTTPFSYKALRRGGADTYSVPSVLSPRRAATERPLGPPTERTRSFQLAVETFHQQHPQVIDVDEVEETGVVFSYNTDSRQTCANNRHQCSVHAECRDYATGFCCSCVAGYTGNGRQCVAEGSPQRVNGKVKGRIFVGSSQVPIVFENTDLHSYVVMNHGRSYTAISTIPETVGYSLLPLAPVGGIIGWMFAVEQDGFKNGFSITGGEFTRQAEVTFVGHPGNLVIKQRFSGIDEHGHLTIDTELEGRVPQIPFGSSVHIEPYTELYHYSTSVITSSSTREYTVTEPERDGASPSRIYTYQWRQTITFQECVHDDSRPALPSTQQLSVDSVFVLYNQEEKILRYALSNSIGPVREGSPDALQNPCYIGTHGCDTNAACRPGPRTQFTCECSIGFRGDGRTCYDIDECSEQPSVCGSHTICNNHPGTFRCECVEGYQFSDEGTCVAVVDQRPINYCETGLHNCDIPQRAQCIYTGGSSYTCSCLPGFSGDGQACQDVDECQPSRCHPDAFCYNTPGSFTCQCKPGYQGDGFRCVPGEVEKTRCQHEREHILGAAGATDPQRPIPPGLFVPECDAHGHYAPTQCHGSTGYCWCVDRDGREVEGTRTRPGMTPPCLSTVAPPIHQGPAVPTAVIPLPPGTHLLFAQTGKIERLPLEGNTMRKTEAKAFLHVPAKVIIGLAFDCVDKMVYWTDITEPSIGRASLHGGEPTTIIRQDLGSPEGIAVDHLGRNIFWTDSNLDRIEVAKLDGTQRRVLFETDLVNPRGIVTDSVRGNLYWTDWNRDNPKIETSYMDGTNRRILVQDDLGLPNGLTFDAFSSQLCWVDAGTNRAECLNPSQPSRRKALEGLQYPFAVTSYGKNLYFTDWKMNSVVALDLAISKETDAFQPHKQTRLYGITTALSQCPQGHNYCSVNNGGCTHLCLATPGSRTCRCPDNTLGVDCIEQK
modifications: 125I-tyramine cellobiose label
notes: nidogen labeled with 125I-tyramine cellobiose
recovered in liver (rat, after 1 h, ref Smedsrød et al., 1989): 78%
Decay of plasma/blood radioactivity, t1/2 (rat, trace amounts, tail vein, ref Smedsrød et al., 1989): 2 to 3 min
